Values quoted from earlier work in patent US12257323B2, “Modified wound dressings” (CONVATEC TECHNOLOGIES INC., priority 2016, dated 2025).

Target: T1, MMP-1 (Homo sapiens, UniProt P03956)
T1 sequence (P03956 100-469): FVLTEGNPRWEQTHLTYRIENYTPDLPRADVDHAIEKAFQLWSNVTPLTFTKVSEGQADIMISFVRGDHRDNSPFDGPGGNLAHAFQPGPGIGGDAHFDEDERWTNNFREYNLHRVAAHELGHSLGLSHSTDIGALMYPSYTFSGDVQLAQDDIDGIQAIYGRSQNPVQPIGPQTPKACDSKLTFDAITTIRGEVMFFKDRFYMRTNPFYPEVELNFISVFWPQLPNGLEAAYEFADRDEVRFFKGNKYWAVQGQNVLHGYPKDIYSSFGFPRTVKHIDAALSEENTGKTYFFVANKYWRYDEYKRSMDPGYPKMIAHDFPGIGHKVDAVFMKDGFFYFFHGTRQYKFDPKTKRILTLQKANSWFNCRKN
Details: cited from earlier work

| Substance | Relative rate MMP-1 |
| --- | --- |
| Gly-Ala-Gln-Gly#Ile-Ala-Gly-Gln (GAQGIAGQ; printed: Gly-Ala-Gln-Gly; printed: Ile-Ala-Gly-Gln) | 50 |
| Gly-Pto-Arg-Gly#Ile-Ala-Gly-Gln | 17 |
| Gly-Pro-Gln-Gly#Ile-Phe-Gly-Gln | 369 |
| Gly-Pro-Gln-Gly#Ile-Ala-Gly-Ala | 86 |
| Gly-Pro-Gln-Gly#Pro-Ala-Gly-Gln | <0.5 |
| Gly-Pro-Gln-Gly#Ile-Ala-Met-Gln | 130 |
| Gly-Pro-Asp-Gly#Ile-Ala-Gly-Gln (GPDGIAGQ; printed: Gly-Pro-Asp-Gly; printed: Ile-Ala-Gly-Gln) | 30 |
| Gly-Pro-Gln-Gly#Ile-Ala-Arg-Gln | 55 |
| Gly-Pro-Gln-Gly#Ile-Ala-Gly-Thr | 160 |
| Gly-Pto-Met-Gly#Ile-Ala-Gly-Gln (IAGQ; printed: Ile-Ala-Gly-Gln) | 160 |
| Gly-Pro-Gln-Gly#Ile-Ala-Val-Gln | 100 |
| Gly-Pro-Hyp-Gly#Ile-Ala-Gly-Gln | 11 |
| Gly-Pro-Gln-Tyr#Ile-Ala-Gly-Gln | 130 |
| Gly-Pro-Gln-Gly#Ser-Ala-Gly-Gln | 5.9 |
| Gly-Pro-Gln-Val#Ile-Ala-GLy-Gln | 5.5 |
| Gly-Pro-Gln-His#Ile-Ala-Gly-Gln | 190 |

Target: MMP-8 (Homo sapiens, UniProt P22894)
Details: cited from earlier work

MMP-8, sequence (P22894 101-467): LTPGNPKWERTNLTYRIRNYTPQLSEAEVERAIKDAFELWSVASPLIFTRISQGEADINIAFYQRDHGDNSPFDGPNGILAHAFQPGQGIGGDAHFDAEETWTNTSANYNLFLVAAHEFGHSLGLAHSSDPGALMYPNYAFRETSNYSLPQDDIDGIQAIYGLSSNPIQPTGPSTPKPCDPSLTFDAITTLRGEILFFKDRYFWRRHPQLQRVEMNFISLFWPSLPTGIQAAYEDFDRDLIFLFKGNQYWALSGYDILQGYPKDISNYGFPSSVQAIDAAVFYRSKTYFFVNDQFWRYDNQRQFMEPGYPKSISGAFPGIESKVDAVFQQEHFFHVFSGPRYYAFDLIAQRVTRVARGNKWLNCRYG

| Substance | Relative rate MMP-8 |
| --- | --- |
| Gly-Ala-Gln-Gly#Ile-Ala-Gly-Gln (GAQGIAGQ; printed: Gly-Ala-Gln-Gly; printed: Ile-Ala-Gly-Gln) | 23 |
| Gly-Pto-Arg-Gly#Ile-Ala-Gly-Gln | 32 |
| Gly-Pro-Gln-Gly#Ile-Phe-Gly-Gln | 510 |
| Gly-Pro-Gln-Gly#Ile-Ala-Gly-Ala | 110 |
| Gly-Pro-Gln-Gly#Pro-Ala-Gly-Gln | <0.5 |
| Gly-Pro-Gln-Gly#Ile-Ala-Met-Gln | 34 |
| Gly-Pro-Asp-Gly#Ile-Ala-Gly-Gln (GPDGIAGQ; printed: Gly-Pro-Asp-Gly; printed: Ile-Ala-Gly-Gln) | 44 |
| Gly-Pro-Gln-Gly#Ile-Ala-Arg-Gln | 34 |
| Gly-Pro-Gln-Gly#Ile-Ala-Gly-Thr | 145 |
| Gly-Pto-Met-Gly#Ile-Ala-Gly-Gln (IAGQ; printed: Ile-Ala-Gly-Gln) | 160 |
| Gly-Pro-Gln-Gly#Ile-Ala-Val-Gln | 57 |
| Gly-Pro-Hyp-Gly#Ile-Ala-Gly-Gln | 15 |
| Gly-Pro-Gln-Tyr#Ile-Ala-Gly-Gln | 180 |
| Gly-Pro-Gln-Gly#Ser-Ala-Gly-Gln | 1.6 |
| Gly-Pro-Gln-Val#Ile-Ala-GLy-Gln | 7.9 |
| Gly-Pro-Gln-His#Ile-Ala-Gly-Gln | 50 |

Target: T2, MMP-2 (Homo sapiens, UniProt P08253)
T2 sequence (P08253 110-660): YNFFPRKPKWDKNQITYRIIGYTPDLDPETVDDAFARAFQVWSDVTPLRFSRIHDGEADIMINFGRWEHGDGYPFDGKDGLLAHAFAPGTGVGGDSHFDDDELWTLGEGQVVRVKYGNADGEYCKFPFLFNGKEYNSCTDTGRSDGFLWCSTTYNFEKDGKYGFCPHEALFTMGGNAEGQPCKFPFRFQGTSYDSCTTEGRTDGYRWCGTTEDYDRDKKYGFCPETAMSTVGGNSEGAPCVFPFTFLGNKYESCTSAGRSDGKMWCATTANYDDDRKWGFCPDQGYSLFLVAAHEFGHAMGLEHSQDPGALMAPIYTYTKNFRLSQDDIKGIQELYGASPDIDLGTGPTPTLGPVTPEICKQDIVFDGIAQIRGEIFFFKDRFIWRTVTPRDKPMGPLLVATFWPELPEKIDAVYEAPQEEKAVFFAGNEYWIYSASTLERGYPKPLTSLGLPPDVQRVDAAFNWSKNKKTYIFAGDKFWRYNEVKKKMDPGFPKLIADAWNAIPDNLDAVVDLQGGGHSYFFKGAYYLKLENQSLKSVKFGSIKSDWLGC
Details: cited from earlier work

| Substance | Relative rate MMP-2 |
| --- | --- |
| Gly-Ala-Gln-Gly#Ile-Ala-Gly-Gln (GAQGIAGQ; printed: Gly-Ala-Gln-Gly; printed: Ile-Ala-Gly-Gln) | 22 |
| Gly-Pto-Arg-Gly#Ile-Ala-Gly-Gln | 160 |
| Gly-Pro-Gln-Gly#Ile-Phe-Gly-Gln | 380 |
| Gly-Pro-Gln-Gly#Ile-Ala-Gly-Ala | 85 |
| Gly-Pro-Gln-Gly#Pro-Ala-Gly-Gln | <5.0 |
| Gly-Pro-Gln-Gly#Ile-Ala-Met-Gln | 40 |
| Gly-Pro-Asp-Gly#Ile-Ala-Gly-Gln (GPDGIAGQ; printed: Gly-Pro-Asp-Gly; printed: Ile-Ala-Gly-Gln) | 11 |
| Gly-Pro-Gln-Gly#Ile-Ala-Arg-Gln | 35 |
| Gly-Pro-Gln-Gly#Ile-Ala-Gly-Thr | 59 |
| Gly-Pto-Met-Gly#Ile-Ala-Gly-Gln (IAGQ; printed: Ile-Ala-Gly-Gln) | 120 |
| Gly-Pro-Gln-Gly#Ile-Ala-Val-Gln | 26 |
| Gly-Pro-Hyp-Gly#Ile-Ala-Gly-Gln | 32 |
| Gly-Pro-Gln-Tyr#Ile-Ala-Gly-Gln | 58 |
| Gly-Pro-Gln-Gly#Ser-Ala-Gly-Gln | 15 |
| Gly-Pro-Gln-Val#Ile-Ala-GLy-Gln | <5.0 |
| Gly-Pro-Gln-His#Ile-Ala-Gly-Gln | 65 |

Target: MMP-9 (Homo sapiens, UniProt P14780)
Details: cited from earlier work

MMP-9, sequence (P14780 94-707): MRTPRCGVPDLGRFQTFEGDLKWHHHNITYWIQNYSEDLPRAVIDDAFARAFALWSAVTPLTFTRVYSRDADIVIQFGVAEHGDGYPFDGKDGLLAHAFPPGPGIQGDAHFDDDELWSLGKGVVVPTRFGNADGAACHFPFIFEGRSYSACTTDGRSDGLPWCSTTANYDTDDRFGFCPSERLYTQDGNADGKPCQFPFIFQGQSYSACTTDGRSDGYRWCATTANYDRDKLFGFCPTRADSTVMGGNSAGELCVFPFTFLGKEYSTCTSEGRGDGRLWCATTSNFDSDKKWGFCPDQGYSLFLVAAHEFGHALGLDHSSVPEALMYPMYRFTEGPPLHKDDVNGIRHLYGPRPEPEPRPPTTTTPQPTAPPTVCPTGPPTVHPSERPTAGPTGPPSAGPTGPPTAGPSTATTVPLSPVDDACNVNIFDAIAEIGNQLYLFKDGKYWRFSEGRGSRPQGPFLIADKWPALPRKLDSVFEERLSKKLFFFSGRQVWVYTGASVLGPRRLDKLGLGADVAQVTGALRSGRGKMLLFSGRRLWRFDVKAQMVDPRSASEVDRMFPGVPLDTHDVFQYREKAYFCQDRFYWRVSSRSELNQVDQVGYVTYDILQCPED

| Substance | Relative rate MMP-9 |
| --- | --- |
| Gly-Ala-Gln-Gly#Ile-Ala-Gly-Gln (GAQGIAGQ; printed: Gly-Ala-Gln-Gly; printed: Ile-Ala-Gly-Gln) | 9.4 |
| Gly-Pto-Arg-Gly#Ile-Ala-Gly-Gln | 83 |
| Gly-Pro-Gln-Gly#Ile-Phe-Gly-Gln | 390 |
| Gly-Pro-Gln-Gly#Ile-Ala-Gly-Ala | 110 |
| Gly-Pro-Gln-Gly#Pro-Ala-Gly-Gln | <5.0 |
| Gly-Pro-Gln-Gly#Ile-Ala-Met-Gln | 35 |
| Gly-Pro-Asp-Gly#Ile-Ala-Gly-Gln (GPDGIAGQ; printed: Gly-Pro-Asp-Gly; printed: Ile-Ala-Gly-Gln) | 10 |
| Gly-Pro-Gln-Gly#Ile-Ala-Arg-Gln | 45 |
| Gly-Pro-Gln-Gly#Ile-Ala-Gly-Thr | 160 |
| Gly-Pto-Met-Gly#Ile-Ala-Gly-Gln (IAGQ; printed: Ile-Ala-Gly-Gln) | 180 |
| Gly-Pro-Gln-Gly#Ile-Ala-Val-Gln | 49 |
| Gly-Pro-Hyp-Gly#Ile-Ala-Gly-Gln | 15 |
| Gly-Pro-Gln-Tyr#Ile-Ala-Gly-Gln | 30 |
| Gly-Pro-Gln-Gly#Ser-Ala-Gly-Gln | <5.0 |
| Gly-Pro-Gln-Val#Ile-Ala-GLy-Gln | <5.0 |
| Gly-Pro-Gln-His#Ile-Ala-Gly-Gln | 44 |

Target: MMP-3 (Homo sapiens, UniProt P08254)
Details: cited from earlier work

MMP-3, sequence (P08254 100-477): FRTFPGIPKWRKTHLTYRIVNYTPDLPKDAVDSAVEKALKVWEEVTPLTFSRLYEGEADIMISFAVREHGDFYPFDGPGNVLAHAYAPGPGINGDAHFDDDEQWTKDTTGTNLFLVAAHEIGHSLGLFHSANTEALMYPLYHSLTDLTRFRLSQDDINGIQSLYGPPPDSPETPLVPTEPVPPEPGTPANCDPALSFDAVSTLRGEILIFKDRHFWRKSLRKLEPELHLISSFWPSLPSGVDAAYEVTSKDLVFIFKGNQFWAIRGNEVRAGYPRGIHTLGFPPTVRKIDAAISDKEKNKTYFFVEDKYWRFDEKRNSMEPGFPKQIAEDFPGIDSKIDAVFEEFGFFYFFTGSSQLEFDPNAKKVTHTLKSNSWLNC

| Substance | Relative rate MMP-3 |
| --- | --- |
| Gly-Ala-Gln-Gly#Ile-Ala-Gly-Gln (GAQGIAGQ; printed: Gly-Ala-Gln-Gly; printed: Ile-Ala-Gly-Gln) | 62 |
| Gly-Pto-Arg-Gly#Ile-Ala-Gly-Gln | 99 |
| Gly-Pro-Gln-Gly#Ile-Phe-Gly-Gln | 130 |
| Gly-Pro-Gln-Gly#Ile-Ala-Gly-Ala | 130 |
| Gly-Pro-Gln-Gly#Pro-Ala-Gly-Gln | <0.5 |
| Gly-Pro-Gln-Gly#Ile-Ala-Met-Gln | 810 |
| Gly-Pro-Asp-Gly#Ile-Ala-Gly-Gln (GPDGIAGQ; printed: Gly-Pro-Asp-Gly; printed: Ile-Ala-Gly-Gln) | 89 |
| Gly-Pro-Gln-Gly#Ile-Ala-Arg-Gln | 490 |
| Gly-Pro-Gln-Gly#Ile-Ala-Gly-Thr | 72 |
| Gly-Pto-Met-Gly#Ile-Ala-Gly-Gln (IAGQ; printed: Ile-Ala-Gly-Gln) | 120 |
| Gly-Pro-Gln-Gly#Ile-Ala-Val-Gln | 170 |
| Gly-Pro-Hyp-Gly#Ile-Ala-Gly-Gln | 83 |
| Gly-Pro-Gln-Tyr#Ile-Ala-Gly-Gln | 68 |
| Gly-Pro-Gln-Gly#Ser-Ala-Gly-Gln | 45 |
| Gly-Pro-Gln-Val#Ile-Ala-GLy-Gln | 32 |
| Gly-Pro-Gln-His#Ile-Ala-Gly-Gln | 87 |

Target: T3, MMP-7 (Homo sapiens, UniProt P09237)
T3 sequence (P09237 95-267): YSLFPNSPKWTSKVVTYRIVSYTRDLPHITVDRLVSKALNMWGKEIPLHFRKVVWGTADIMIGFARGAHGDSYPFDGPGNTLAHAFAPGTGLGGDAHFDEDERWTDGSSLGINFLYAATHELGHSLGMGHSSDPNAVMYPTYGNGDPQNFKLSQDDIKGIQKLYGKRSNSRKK
Details: cited from earlier work

| Substance | Relative rate MMP-7 |
| --- | --- |
| Gly-Pto-Arg-Gly#Ile-Ala-Gly-Gln | 13 |
| Gly-Pro-Gln-Gly#Ile-Phe-Gly-Gln | 140 |
| Gly-Pro-Gln-Gly#Ile-Ala-Gly-Ala | 91 |
| Gly-Pro-Gln-Gly#Pro-Ala-Gly-Gln | <5.0 |
| Gly-Pro-Gln-Gly#Ile-Ala-Met-Gln | 450 |
| Gly-Pro-Asp-Gly#Ile-Ala-Gly-Gln (GPDGIAGQ; printed: Gly-Pro-Asp-Gly; printed: Ile-Ala-Gly-Gln) | 7.0 |
| Gly-Pro-Gln-Gly#Ile-Ala-Arg-Gln | 220 |
| Gly-Pro-Gln-Gly#Ile-Ala-Gly-Thr | 100 |
| Gly-Pto-Met-Gly#Ile-Ala-Gly-Gln (IAGQ; printed: Ile-Ala-Gly-Gln) | 400 |
| Gly-Pro-Gln-Gly#Ile-Ala-Val-Gln | 170 |
| Gly-Pro-Hyp-Gly#Ile-Ala-Gly-Gln | 17 |
| Gly-Pro-Gln-Tyr#Ile-Ala-Gly-Gln | 34 |
| Gly-Pro-Gln-Gly#Ser-Ala-Gly-Gln | 5.5 |
| Gly-Pro-Gln-Val#Ile-Ala-GLy-Gln | <5.0 |
